In one assay the target is human orexin receptor 1 (Homo sapiens (Human), UniProt O43613). Nature of the assay: Orexin antagonist activity, intracellular calcium FLIPR assay, RBL-2H3 cells expressing human orexin receptor 1. It is filed as cell-based. Conditions: RBL-2H3 cells stably expressing human orexin receptor 1; orexin-A at approx. 80% maximal response; compound added 15 minutes before; read-out: Human Orexin1R IC50.

Another assay deals with human orexin receptor 2 (Homo sapiens (Human), UniProt O43614). Nature of the assay: Orexin antagonist activity, intracellular calcium FLIPR assay, RBL-2H3 cells expressing human orexin receptor 2. Format: cell-based. The conditions noted are these: RBL-2H3 cells stably expressing human orexin receptor 2; orexin-A at approx. 80% maximal response; compound added 15 minutes before; read-out: Human Orexin2R IC50. (A change in cytosolic calcium serves as a functional read-out for many receptors and channels.)

pIC50: −log10 of the molar value.

human orexin receptor 1, sequence (O43613 whole entry): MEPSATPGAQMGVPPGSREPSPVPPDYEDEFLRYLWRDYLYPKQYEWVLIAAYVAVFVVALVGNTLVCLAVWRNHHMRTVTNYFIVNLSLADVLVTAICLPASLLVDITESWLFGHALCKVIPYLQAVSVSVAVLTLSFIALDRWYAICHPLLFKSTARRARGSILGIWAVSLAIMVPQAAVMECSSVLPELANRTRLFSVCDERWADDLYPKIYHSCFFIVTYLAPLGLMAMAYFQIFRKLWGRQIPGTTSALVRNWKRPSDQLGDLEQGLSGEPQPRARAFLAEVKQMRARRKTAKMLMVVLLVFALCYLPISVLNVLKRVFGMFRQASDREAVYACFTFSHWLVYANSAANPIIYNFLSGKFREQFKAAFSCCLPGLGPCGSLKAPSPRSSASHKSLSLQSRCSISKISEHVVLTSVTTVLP
human orexin receptor 2, sequence (O43614 whole entry): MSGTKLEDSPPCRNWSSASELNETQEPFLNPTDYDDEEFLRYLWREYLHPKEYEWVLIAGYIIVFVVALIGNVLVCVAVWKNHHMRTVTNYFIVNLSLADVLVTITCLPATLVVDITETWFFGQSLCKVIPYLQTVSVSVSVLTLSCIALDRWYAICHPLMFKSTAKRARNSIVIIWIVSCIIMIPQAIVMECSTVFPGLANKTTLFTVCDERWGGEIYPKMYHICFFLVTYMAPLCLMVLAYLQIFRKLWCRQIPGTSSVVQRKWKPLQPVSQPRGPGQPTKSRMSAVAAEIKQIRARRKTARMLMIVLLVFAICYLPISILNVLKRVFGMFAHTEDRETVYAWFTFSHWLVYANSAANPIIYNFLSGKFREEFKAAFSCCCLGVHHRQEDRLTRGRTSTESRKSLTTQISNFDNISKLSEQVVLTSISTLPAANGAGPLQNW

The term pIC50 denotes the negative decadic logarithm of the IC50, by convention in mol/L. `CCOc1cnc(-c2ccccc2C(=O)N[C@H]2CCC[C@@H]2Nc2cnc(C(F)(F)F)cn2)nc1` [Example 135, 2-(5-Ethoxypyrimidin-2-yl)-N-[(1S,2S)-2-{[5-(trifluoromethyl)pyrazin-2-yl]amino}cyclopentyl]benzamide]: the results for the negative logarithm of the IC50 (pIC50) at human orexin receptor 1 and at human orexin receptor 2 were 7.03 and below 5.00, respectively.

As for `O=C(N[C@H]1CCC[C@@H]1Nc1cnc(C(F)(F)F)cn1)c1cc(F)ccc1-n1cccn1` [Example 47, 5-Fluoro-2-(1H-pyrazol-1-yl)-N-[(1S,2S)-2-{[5-(trifluoromethyl)pyrazin-2-yl]amino}cyclopentyl]benzamide], the negative logarithm of the IC50 (pIC50) is 6.35 on human orexin receptor 1 and below 5.00 at human orexin receptor 2.

For the compound `CC1(Nc2ccc(C(F)(F)F)cn2)CCCC1NC(=O)c1ncccc1-c1ncccn1` (stereo not shown) [Example 156, N-(2-Methyl-2-{[5-(trifluoromethyl)pyridin-2-yl]amino}cyclopentyl)-3-(pyrimidin-2-yl)pyridine-2-carboxamide], the pIC50 is 7.96 at human orexin receptor 1 and below 5.00 on human orexin receptor 2.

Turning to `COc1cccc(OC)c1C(=O)N[C@H]1CCC[C@@H]1Nc1cnc(C(F)(F)F)cn1` [Example 34, 2,6-Dimethoxy-N-[(1S,2S)-2-{[5-(trifluoromethyl)pyrazin-2-yl]amino}cyclopentyl]benzamide], the pIC50 on human orexin receptor 1 was 6.28; on human orexin receptor 2, below 5.00.

As for `C[C@]1(Nc2cnc(C(F)(F)F)cn2)CCC[C@@H]1NC(=O)c1ncccc1-n1nccn1` [Example 77, N-[(1S,2S)-2-Methyl-2-{[5-(trifluoromethyl)pyrazin-2-yl]amino}cyclopentyl]-3-(2H-1,2,3-triazol-2-yl)pyridine-2-carboxamide], the pIC50 is 7.92 on human orexin receptor 1 and below 5.00 at human orexin receptor 2.

Regarding `O=C(NC1CCCC1Cc1ccc(C(F)(F)F)cn1)c1ccccc1-n1nccn1` (single isomer, unassigned) [Example 25, 2-(2H-1,2,3-Triazol-2-yl)-N-(2-{[5-(trifluoromethyl)pyridin-2-yl]methyl}cyclopentyl)benzamide], the pIC50 was 6.33 on human orexin receptor 1 and below 5.00 on human orexin receptor 2.

Regarding `O=C(N[C@H]1CCC[C@@H]1Nc1cnc(C(F)(F)F)cn1)c1ccccc1C(F)(F)F` [Example 62, 2-(Trifluoromethyl)-N-[(1S,2S)-2-{[5-(trifluoromethyl)pyrazin-2-yl]amino}cyclopentyl]benzamide], the pIC50 on human orexin receptor 1 is 6.34; at human orexin receptor 2 it was below 5.00.

Take `O=C(N[C@H]1CCC[C@@H]1Nc1cnc(C(F)(F)F)cn1)c1c(F)cccc1C1CC1` [Example 66, 2-Cyclopropyl-6-fluoro-N-[(1S,2S)-2-{[5-(trifluoromethyl)pyrazin-2-yl]amino}cyclopentyl]benzamide]: the pIC50 on human orexin receptor 1 was 6.74; at human orexin receptor 2 it was below 5.00.

For `O=C(N[C@H]1CCC[C@@H]1Nc1cnc(C(F)(F)F)cn1)c1c(F)cccc1-n1cccn1` [Example 46, 2-Fluoro-6-(1H-pyrazol-1-yl)-N-[(1S,2S)-2-{[5-(trifluoromethyl)pyrazin-2-yl]amino}cyclopentyl]benzamide], the figures for the pIC50 at human orexin receptor 1 and at human orexin receptor 2 were 6.76 and below 5.00, respectively.

In the case of `O=C(N[C@H]1CCC[C@@H]1Nc1ccc(C(F)(F)F)cn1)c1cccc(F)c1-n1nccn1` [Example 98, 3-Fluoro-2-(2H-1,2,3-triazol-2-yl)-N-[(1S,2S)-2-{[5-(trifluoromethyl)pyridin-2-yl]amino}cyclopentyl]benzamide], the pIC50 was 6.80 on human orexin receptor 1 and below 5.00 on human orexin receptor 2.

With `CC1(Nc2ncc(C(F)(F)F)cc2F)CCCC1NC(=O)c1ncccc1-n1nccn1` (stereo not shown) [Example 103, N-(2-{[3-Fluoro-5-(trifluoromethyl)pyridin-2-yl]amino}-2-methylcyclopentyl)-3-(2H-1,2,3-triazol-2-yl)pyridine-2-carboxamide], the results for the pIC50 at human orexin receptor 1 and on human orexin receptor 2 were 8.10 and 5.10, respectively.

For the compound `O=C(N[C@H]1CC(F)(F)C[C@@H]1Nc1ccc(OC(F)F)cn1)c1ccccc1-n1nccn1` [Example 157, N-[(1S,2S)-2-{[5-(Difluoromethoxy)pyridin-2-yl]amino}-4,4-difluorocyclopentyl]-2-(2H-1,2,3-triazol-2-yl)benzamide], the pIC50 at human orexin receptor 1 was 6.63; on human orexin receptor 2, below 5.00.

For the compound `CCc1nc(C(F)(F)F)cnc1N[C@H]1CCC[C@@H]1NC(=O)c1ccccc1-n1nccn1` [Example 111, N-[(1S,2S)-2-{[3-Ethyl-5-(trifluoromethyl)pyrazin-2-yl]amino}cyclopentyl]-2-(2H-1,2,3-triazol-2-yl)benzamide], the negative logarithm of the IC50 (pIC50) was 7.47 at human orexin receptor 1 and below 5.00 on human orexin receptor 2.

As for `CC1(Nc2ncc(C(F)(F)F)cn2)CCCC1NC(=O)c1ccccc1-n1nccn1` (stereo not shown) [Example 93, N-(2-Methyl-2-{[5-(trifluoromethyl)pyrimidin-2-yl]amino}cyclopentyl)-2-(2H-1,2,3-triazol-2-yl)benzamide], the pIC50 at human orexin receptor 1 was 7.46; on human orexin receptor 2 it was below 5.00.

In the case of `O=C(N[C@H]1CCC[C@@H]1Nc1ncc(C(F)(F)F)cc1Cl)c1ncccc1-c1ncccn1` [Example 148, N-[(1S,2S)-2-{[3-Chloro-5-(trifluoromethyl)pyridin-2-yl]amino}cyclopentyl]-3-(pyrimidin-2-yl)pyridine-2-carboxamide], the values for the pIC50 at human orexin receptor 1 and at human orexin receptor 2 were 7.72 and below 5.00, respectively.

Consider `O=C(N[C@H]1CCC[C@@H]1Nc1ncc(C(F)(F)F)cc1Br)c1ccccc1-n1nccn1` [Example 107, N-[(1S,2S)-2-{[3-Bromo-5-(trifluoromethyl)pyridin-2-yl]amino}cyclopentyl]-2-(2H-1,2,3-triazol-2-yl)benzamide], for which the pIC50 is 7.57 on human orexin receptor 1 and below 5.00 on human orexin receptor 2.

In the case of `COc1ccc(C)cc1C(=O)N[C@H]1CCC[C@@H]1Nc1cnc(C(F)(F)F)cn1` [Example 37, 2-Methoxy-5-methyl-N-[(1S,2S)-2-{[5-(trifluoromethyl)pyrazin-2-yl]amino}cyclopentyl]benzamide], the pIC50 on human orexin receptor 1 was 6.47; on human orexin receptor 2 it was below 5.00.

As to `CC1(Nc2cnc(C(F)(F)F)cn2)CCCC1NC(=O)c1ccccc1-n1nccn1` (stereo not shown) [Example 82, N-(2-Methyl-2-{[5-(trifluoromethyl)pyrazin-2-yl]amino}cyclopentyl)-2-(2H-1,2,3-triazol-2-yl)benzamide], the pIC50 on human orexin receptor 1 was 7.68; at human orexin receptor 2, 5.12.

`O=C(NC1CC(F)(F)CC1Nc1ncc(C(F)(F)F)cn1)c1ccccc1-n1nccn1` (single isomer, unassigned) [Example 127, N-(4,4-Difluoro-2-{[5-(trifluoromethyl)pyrimidin-2-yl]amino}cyclopentyl)-2-(2H-1,2,3-triazol-2-yl)benzamide]: the pIC50 was 7.17 at human orexin receptor 1 and below 5.00 on human orexin receptor 2.

Regarding `O=C(N[C@H]1CCC[C@@H]1Nc1cnc(C(F)(F)F)cn1)c1ccccc1-n1nccn1` [Example 17, 2-(2H-1,2,3-Triazol-2-yl)-N-[(1S,2S)-2-{[5-(trifluoromethyl)pyrazin-2-yl]amino}cyclopentyl]benzamide], the pIC50 was 7.28 on human orexin receptor 1 and below 5.00 on human orexin receptor 2.

On to `O=C(N[C@H]1CCC[C@@H]1Nc1cnc(C(F)(F)F)cn1)c1ccccc1-n1ccnn1` [Example 35, 2-(1H-1,2,3-Triazol-1-yl)-N-[(1S,2S)-2-{[5-(trifluoromethyl)pyrazin-2-yl]amino}cyclopentyl]benzamide], for which the pIC50 on human orexin receptor 1 is 6.16; at human orexin receptor 2, below 5.00.

Take `Cc1ccc(-n2nccn2)c(C(=O)NC2CCCC2Cc2ccc(C(F)(F)F)cn2)c1` (stereo not shown) [Example 26, 5-Methyl-2-(2H-1,2,3-triazol-2-yl)-N-(2-{[5-(trifluoromethyl)pyridin-2-yl]methyl}cyclopentyl)benzamide]: the pIC50 at human orexin receptor 1 is 6.21; on human orexin receptor 2 it was below 5.00.

With `O=C(N[C@H]1CCC[C@@H]1Nc1ccc(C(F)(F)F)cn1)c1c(F)cccc1-n1nccn1` [Example 102, 2-Fluoro-6-(2H-1,2,3-triazol-2-yl)-N-[(1S,2S)-2-{[5-(trifluoromethyl)pyridin-2-yl]amino}cyclopentyl]benzamide], the pIC50 on human orexin receptor 1 was 7.34; on human orexin receptor 2 it was below 5.00.

Regarding `CC1(Nc2ccc(C(F)(F)F)cn2)CCCC1NC(=O)c1ccccc1-n1nccn1` (stereo not shown) [Example 95, N-(2-Methyl-2-{[5-(trifluoromethyl)pyridin-2-yl]amino}cyclopentyl)-2-(2H-1,2,3-triazol-2-yl)benzamide], the figures for the pIC50 on human orexin receptor 1 and at human orexin receptor 2 were 7.72 and 5.97, respectively.

Consider `O=C(N[C@H]1CCC[C@@H]1Nc1cnc(C(F)(F)F)cn1)c1ccccc1-n1cccn1` [Example 31, 2-(1H-Pyrazol-1-yl)-N-[(1S,2S)-2-{[5-(trifluoromethyl)pyrazin-2-yl]amino}cyclopentyl]benzamide], for which the results for the pIC50 on human orexin receptor 1 and at human orexin receptor 2 were 6.91 and below 5.00, respectively.

Turning to `O=C(N[C@H]1CCC[C@@H]1Nc1cnc(C(F)(F)F)cn1)c1cc(F)cc(F)c1-n1nccn1` [Example 61, 3,5-Difluoro-2-(2H-1,2,3-triazol-2-yl)-N-[(1S,2S)-2-{[5-(trifluoromethyl)pyrazin-2-yl]amino}cyclopentyl]benzamide], the negative logarithm of the IC50 (pIC50) on human orexin receptor 1 was 6.49; at human orexin receptor 2 it was below 5.00.

For `CC1(Nc2ncc(C(F)(F)F)cn2)CCCC1NC(=O)c1ncccc1-n1nccn1` (stereo not shown) [Example 154, N-(2-Methyl-2-{[5-(trifluoromethyl)pyrimidin-2-yl]amino}cyclopentyl)-3-(2H-1,2,3-triazol-2-yl)pyridine-2-carboxamide], the pIC50 was 7.38 on human orexin receptor 1 and below 5.00 on human orexin receptor 2.

In the case of `Cc1ccc(-n2nccn2)c(C(=O)N[C@H]2CCC[C@@H]2Nc2cnc(C(F)(F)F)cn2)c1` [Example 7, 5-Methyl-2-(2H-1,2,3-triazol-2-yl)-N-[(1S,2S)-2-{[5-(trifluoromethyl)pyrazin-2-yl]amino}cyclopentyl]benzamide], the pIC50 on human orexin receptor 1 was 7.29; on human orexin receptor 2, below 5.00.

For `COc1cccc(F)c1C(=O)N[C@H]1CCC[C@@H]1Nc1cnc(C(F)(F)F)cn1` [Example 136, 2-Fluoro-6-methoxy-N-[(1S,2S)-2-{[5-(trifluoromethyl)pyrazin-2-yl]amino}cyclopentyl]benzamide], the pIC50 at human orexin receptor 1 was 6.08; on human orexin receptor 2 it was below 5.00.
